# Results taken from patent US12336981B2, “Compounds and compositions for the inhibition of NAMPT” (Valo Health, Inc., priority 2010, dated 2025).
# “And” between values parts separate entries of the source, which are not always exact repeats. Identical values can stand only once.
# Target: T1, NAMPT (Homo sapiens, UniProt P43490)
# T1 construct: His tag; host or cells: E. coli
# Experiment: Biochemical inhibition assay: NAMPT enzymatic reaction, NMN quantified by mass spectrometry
# Settings: NAMPT enzymatic assay; read-out: Biochem IC50
# Protocol: Biochemical Inhibition Assay
# NAMPT Protein Purification
# Recombinant His-tagged NAMPT was produced in E. coli cells, purified over a Ni column, and further purified over a size-exclusion column by XTAL Biostructures.
# The NAMPT Enzymatic Reaction
# The NAMPT enzymatic reactions were carried out in Buffer A (50 mM Hepes pH 7.5, 50 mM NaCl, 5 mM MgCl2, and 1 mM THP) in 96-well V-bottom plates. The compound titrations were performed in a separate dilution plate by serially diluting the compounds in DMSO to make a 100× stock. […] The compound and enzyme mix was incubated for 15 minutes at room temperature, then 10 μL of 10× substrate and co-factors in Buffer A were added to the test well to make a final concentration of 1 μM NAM, 100 μM 5-Phospho-D-ribose 1-diphosphate (PRPP), and 2.5 mM Adenosine 5′-triphosphate (ATP). The reaction was allowed to proceed for 30 minutes at room temperature, then was quenched with the addition of 11 μL of a solution of formic acid and L-Cystathionine to make a final concentration of 1% formic acid and 10 μM L-Cystathionine. Background and signal strength was determined by addition (or non-addition) of a serial dilution of NMN to a pre-quenched enzyme and cofactor mix.
# A mass spectrometry-based assay was used to measure the NAMPT reaction product (NMN) and the internal control (L-Cystathionine). NMN and L-Cystathionine were detected using the services of Biocius Lifesciences with the RapidFire system. In short, the NMN and L-Cystathionine are bound to a graphitic carbon cartridge in 0.1% formic acid, eluted in 30% acetonitrile buffer, and injected into a Sciex 4000 mass spectrometer. The components of the sample were ionized with electrospray ionization and the positive ions were detected. […] The fragments are quantified and the analyzed by the following method.
# First the NMN signal is normalized to the L-Cystathionine signal by dividing the NMN signal by the L-Cystathionine signal for each well. The signal from the background wells are averaged and subtracted from the test plates. […] IC50s are Determined Using Excel and this Formula.
# T1 sequence (P43490 whole entry): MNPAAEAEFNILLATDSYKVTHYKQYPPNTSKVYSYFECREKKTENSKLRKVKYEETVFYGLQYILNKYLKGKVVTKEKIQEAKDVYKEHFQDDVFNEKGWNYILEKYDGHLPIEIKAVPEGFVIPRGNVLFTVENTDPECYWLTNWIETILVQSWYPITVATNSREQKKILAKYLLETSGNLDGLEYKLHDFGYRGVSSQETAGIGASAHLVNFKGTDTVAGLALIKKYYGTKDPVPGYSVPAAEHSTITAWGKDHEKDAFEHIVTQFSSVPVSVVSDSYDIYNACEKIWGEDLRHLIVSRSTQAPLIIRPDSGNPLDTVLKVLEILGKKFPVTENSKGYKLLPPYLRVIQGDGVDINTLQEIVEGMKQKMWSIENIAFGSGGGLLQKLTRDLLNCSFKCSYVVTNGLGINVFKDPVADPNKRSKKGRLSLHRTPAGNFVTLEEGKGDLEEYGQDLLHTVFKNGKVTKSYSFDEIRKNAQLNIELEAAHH
row,Molecule,IC50
1,"O=C(NCc1ccc(S(=O)(=O)c2cnc3ccccc3c2)cc1)c1cc2ccncc2o1 [N-{[4-(quinoline-3-sulfonyl)phenyl]methyl}furo[2,3-c]pyridine-2-carboxamide]",4.2 nM
2,CN(C)S(=O)(=O)c1cccc(S(=O)(=O)c2ccc(CNC(=O)c3cc4ccncc4o3)cc2)c1,2 nM
3,"O=C(NCc1ccc(S(=O)(=O)c2cc(C(F)(F)F)ccn2)cc1)c1ccc2nccn2c1 [N-({4-[4-(trifluoromethyl)pyridine-2-sulfonyl]phenyl}methyl)imidazo[1,2-a]pyridine-6-carboxamide]",19.7 nM
4,"O=C(NCc1ccc(S(=O)(=O)c2cncc(Cl)c2)cc1)c1ccc2nccn2c1 [N-{[4-(5-chloropyridine-3-sulfonyl)phenyl]methyl}imidazo[1,2-a]pyridine-6-carboxamide]",24.4 nM
5,O=C(NCc1ccc(S(=O)(=O)c2ccc(F)c(C(F)(F)F)c2)cc1)c1cnc2nccn2c1,8 nM
6,"O=C(NCc1ccc(S(=O)(=O)c2cncc3ccccc23)cc1)c1cnc2nccn2c1 [N-{[4-(isoquinoline-4-sulfonyl)phenyl]methyl}imidazo[1,2-a]pyrimidine-6-carboxamide]",1.6 nM
7,Cc1nc(-c2cccc(S(=O)(=O)c3ccc(CNC(=O)c4cc5ccncc5o4)cc3)c2)no1,7.9 nM
8,CCS(=O)(=O)c1cccc(S(=O)(=O)c2ccc(CNC(=O)c3cc4ccncc4o3)cc2)c1,2.7 nM
9,O=C(NC1CCCC1)c1cccc(S(=O)(=O)c2ccc(CNC(=O)c3cc4ccncc4o3)cc2)c1,6.6 nM
10,"O=C(NCc1ccc(S(=O)(=O)c2ccc(F)c(OCC(F)(F)F)c2)cc1)c1cnc2[nH]ncc2c1 [N-[(4-{[4-fluoro-3-(2,2,2-trifluoroethoxy)benzene]sulfonyl}phenyl)methyl]-1H-pyrazolo[3,4-b]pyridine-5-carboxamide]",10 nM
11,"COc1cccc(S(=O)(=O)c2ccc(CNC(=O)c3cc4ccncc4o3)cc2)n1 [N-{[4-(6-methoxypyridine-2-sulfonyl)phenyl]methyl}furo[2,3-c]pyridine-2-carboxamide]",2.5 nM
12,O=C(NCc1ccc(S(=O)(=O)c2ccc(Cn3ccnc3)cc2)cc1)c1cc2ccncc2o1,19 nM
13,O=C(NCc1ccc(S(=O)(=O)c2cccc3c2sc2ccccc23)cc1)c1cc2cnccc2[nH]1,3.5 nM
14,"O=C(NCc1ccc(S(=O)(=O)c2cccc3c2OCC3)cc1)c1cnc2[nH]ncc2c1 [N-{[4-(2,3-dihydro-1-benzofuran-7-sulfonyl)phenyl]methyl}-1H-pyrazolo[3,4-b]pyridine-5-carboxamide]",24.8 nM
15,O=C(NCc1ccc(S(=O)(=O)c2cccc(N3CCOCC3)c2)cc1)c1cc2ccncc2[nH]1,20.7 nM and 8.4 nM
16,CCCS(=O)(=O)Nc1cccc(S(=O)(=O)c2ccc(CNC(=O)c3cc4ccncc4s3)cc2)c1,1.5 nM
17,"Cn1cc2ccc(S(=O)(=O)c3ccc(CNC(=O)c4cc5cnccc5[nH]4)cc3)cc2n1 [N-{[4-(2-methyl-2H-indazole-6-sulfonyl)phenyl]methyl}-1H-pyrrolo[3,2-c]pyridine-2-carboxamide]",2.5 nM
18,CC(C)Oc1ccc(S(=O)(=O)c2ccc(CNC(=O)c3cnc4nccn4c3)cc2)cc1,4.3 nM

# Same assay, conditions: NAMPT enzymatic reaction; read-out: Biochem IC50
row,Molecule,IC50 [nM]
1,CCCOc1ccc(Cl)cc1S(=O)(=O)c1ccc(CNC(=O)c2ccc3nccn3c2)cc1,8
2,"O=C(NCc1ccc(S(=O)(=O)c2ccccc2OC(F)(F)F)cc1)c1ccc2nccn2c1 [N-(4-(2-(trifluoromethoxy)phenylsulfonyl)benzyl)imidazo[1,2-a]pyridine-6-carboxamide]",8
3,"N-({4-[(2,4-dichloro-3-methoxybenzene)sulfonyl]phenyl}methyl)-1H-pyrazolo[3,4-b]pyridine-5-carboxamide",20
4,COc1ccc(Cl)cc1S(=O)(=O)c1ccc(CNC(=O)c2ccc3nccn3c2)cc1,19.1
5,Cc1cc(F)cc(S(=O)(=O)c2ccc(CNC(=O)c3cc4ccncc4o3)cc2)c1,3.4
6,Cc1ccc(S(=O)(=O)c2ccc(CNC(=O)c3cnc4[nH]ncc4c3)cc2)cc1Cl,6.1
7,CCCOc1ccc(S(=O)(=O)c2ccc(CNC(=O)c3cc4cnccc4[nH]3)cc2)cc1Cl,74
